Experimental data reported in patent US20080299123A1, “TREATMENT OF CHEMOTHERAPY- OR RADIOTHERAPY-RESISTANT TUMORS” (Deutsches Krebsforschungszentrum Stiftung des offentlichen …, priority 2006, published 2008).
Entries after “also recorded” stand apart in the source; their conditions may differ.

Assays:
HEK293-hL1 cells [1] = test: Induction of apoptosis, Nicoletti staining, in HEK293-hL1 cells; format: cell-based, human; conditions: L1 positive cells; cisplatin 17 μM
Description: (§1) Cells (1×10^5 cells per well) were cultured in duplicate in 6 well culture plates and, after washing once with PBS, incubated for the indicated timepoints with or without apoptotic stimuli in serum-free medium. Staurosporine (2 μM), C2-ceramide (40 μM) or cisplatin (17 μM) were used as apoptotic reagents. For hypoxia studies, cells were incubated for different time points under hypoxic conditions (1% O2) using a Reming Bioinstruments chamber and oxygen regulator (Reming Bioinstruments, Redfield, N.Y.).
(§2) For quantification of DNA fragmentation, supernatants were centrifuged at 200×g. The cell pellet was washed once in PBS (pH 7.4) and lysed in a hypotonic lysis buffer (0.1% sodium citrate, 0.1% Triton X-100, 50 μg/ml propidiumiodite) at 4° C. overnight. The nuclei were then analyzed for DNA content by flow cytometry. The staining of cells for flow cytometry with mAbs and PE-conjugated secondary antibodies has been described. Cells were analysed with a FACScan using Cellquest or FlowJo software from Becton Dickinson (Heidelberg, Germany).

HEK293 cells [2] = test: Induction of apoptosis, Nicoletti staining, in HEK293 cells; format: cell-based, human; conditions: L1-negative cells; cisplatin 17 μM
Description: as §1, §2

m130 cells = test: Long-term cisplatin treatment of m130 cells; format: cell-based
Description: (A) Light microscopy of cisplatin treated and no-treated m130 cells. Note the more elongated morphology after treatment for 3 weeks. The bar represents 10 μm. (B) FACS analysis of cisplatin treated m130 cells with mAb L1-11A against human L1-CAM. The analysis was carried out as described in FIG. 1. (C) Western blot analysis of cell lysate from cisplatin treated on non-treated m130 cells. (D) FACS analysis of cisplatin treated SW707 colon carcinoma cells with mAb L1-11A against human L1-CAM.
We studied whether long-term cisplatin treatment of L1-negative m130 cells would augment L1 expression. M130 cells were treated cells with increasing amounts of cisplatin over a time period of 3 weeks (10 μM first week, 15 μM second week, 20 μM third week).

OVMz = conditions: L1 high expressing cell line OVMz; previous work [29]; read-out: IC50 for cisplatin; cited from earlier work
m130 = conditions: L1 negative cell line m130; previous work [29]; read-out: IC50 for cisplatin; cited from earlier work
L1 = test: siRNA-mediated knockdown of L1 in OVMz cells (FACS, Western blot); format: cell-based, human; conditions: 48 hours after transfection
Description: (A) OVMz cells were transfected with L1-specific siRNA or control siRNA. After 48 hrs, cells were stained with mAb L1-11A to L1 followed by PE-conjugated anti-mouse IgG antibody and subjected to FACS analysis. (B) Cell lysates were analyzed by Western blot analysis using antibodies to the L1 ectodomain (mAb L1-11A) or the cytoplasmic portion (pcytL1). The L1-32 fragment is the ADAM10-mediated ectodomain cleavage fragment.
as §2
(§3) SDS-PAGE under reducing conditions and transfer of separated proteins to Immobilon membranes using semi-dry blotting was described before. […] Eluted fractions were neutralized and an aliquot of the samples was analyzed by SDS-PAGE. […]
Transfection of siRNAs was described before. […] Cells were transfected with annealed siRNAs using Oligofectamine (Life Technologies) and analyzed after the indicated time points.

[3] = tested on: ERK and FAK phosphorylation; test: Phosphorylation of ERK and FAK in L1-depleted OVMz cells; format: cell-based
Description: (C) Phosphorylation of ERK1/2, FAK, and PAK 1 was analyzed in L1-siRNA depleted cell. (D and E) analysis of apoptosis by Nicoletti staining.
(§4) SDS-PAGE under reducing conditions and transfer of separated proteins to Immobilon membranes using semi-dry blotting was described before. After blocking with 5% skim milk in TBS, the blots were developed with the respective primary antibody followed by peroxidase conjugated secondary antibody and ECL detection. The isolation and characterization of soluble L1 from ascites fluid was described before. Briefly, the vesicle cleared ascites fluid from ovarian carcinoma patients was adsorbed to Sepharoselinked mAb L1-11A and bound L1 was eluted with 0.1 M Glycin/HCl buffer pH 2.8. Eluted fractions were neutralized and an aliquot of the samples was analyzed by SDS-PAGE. Cell pellets were lysed in lysis buffer (20 mM Tris/HCl pH 8.0 containing 1% Triton X-100, 150 mM NaCl, 1 mM PMSF), cleared by centrifugation and mixed with two fold-concentrated reducing SDS-sample buffer.
(§5) Transfection of siRNAs was described before. L1 (5′-AGGGAUGG-UGUCCACCUUCAAAUU-3′) siRNA (SEQ ID NO: 1) was synthesized by MWG-Biotech (Ebersberg, Germany). Cells were transfected with annealed siRNAs using Oligofectamine (Life Technologies) and analyzed after the indicated time points.

OVMz cells = test: Apoptosis by Nicoletti staining in siRNA transfected OVMz cells; format: cell-based; conditions: compared to control siRNA treated cells
Description: as §1, §2, §5

HEK293-hL1wt cells = test: Haptotactic cell migration on fibronectin, HEK293-hL1wt; format: cell-based, human; conditions: MEK inhibitor at 20 μM
Description: (A) L1 processing and cleavage in transfected HEK293 cells. The cell lysates were analyzed by Western blot with pcyt-L1 recognizing the cytoplasmic portion of L1. The nomenclature of L1-cleavage fragments is according to a previous publication (Mechtersheimer et al, 2001). (B) ELISA analysis. Soluble L1 levels in the medium of HEK293-hL1wt or HEK293-hL1mutTS cells treated with or without PMA stimulation for 1 h at 37° C. was analyzed. Lysates from both cell lines were used as positive controls. (C) Stimulation of cell migration on fibronectin by recombinant L1-Fc. The fusion protein was added at the final concentration of 0.6 μg/ml. […] (E) Phosphorylation of ERK1/2, FAK, PAK 1 and Src was analyzed in HEK293, HEK293-hL1wt and HEK293-hL1mutTS cells grown in serum. […] Labelled proteins were detected by autoradiography.
(A) HEK293 cells or HEK293-hL1wt cells were transfected transiently with plasmids (10 μg DNA) encoding hL1mut, dominant-negative ADAM10 (ADAM10-DN) or empty pcDNA3 vector. […] 48 h after transfection, cells were analyzed for haptotactic cell migration on fibronectin. […] 48 h after transduction with hL1wt or hL1mutTS adenovirus or YFP-TM adenovirus for control, KS cells or the L1 positive ovarian carcinoma cells OVMz, SKOV3ip and MO68 were analyzed for haptotactic cell migration on fibronectin as described in the legend to FIG. 1. […]

HEK293 cells [4] = test: Soluble L1 rescue from staurosporine induced apoptosis, HEK293; format: cell-based, human; conditions: staurosporine 12 hours, purified soluble L1 10 μg/ml
Description: (§6) (A) HEK293 and HEK293-hL1 cells were treated with staurosporine for the indicated length of time in the presence or absence of purified soluble L1 (10 μg/ml). Cell survival was determined by Nicoletti staining. (B) Analysis of FAK phosphorylation in HEK293 cells after the addition of soluble L1.
as §1
(§7) For quantification of DNA fragmentation, supernatants were centrifuged at 200×g. […] The nuclei were then analyzed for DNA content by flow cytometry. […] Cells were analysed with a FACScan using Cellquest or FlowJo software from Becton Dickinson (Heidelberg, Germany).
as §3

HEK293-hL1 cells [5] = test: Soluble L1 rescue from staurosporine induced apoptosis, HEK293-hL1; format: cell-based, human; conditions: staurosporine 12 hours, purified soluble L1 10 μg/ml
Description: as §6, §1, §7, §3

FAK phosphorylation = FAK phosphorylation in HEK293 cells after addition of soluble L1; format: cell-based, human; conditions: addition of soluble L1 to HEK293 cells
Description: as §6, §4

For `N.N.[Cl][Pt][Cl]` [cisplatin, cis-Diammineplatinum(II) dichloride], which “cells survived the treatment with cisplatin” value (HEK293-hL1 cells [1]) is on record?
The value was “Approximately 70%”.

And the “cells survived the treatment with cisplatin” value (HEK293 cells [2])?
Its value is 40%.

What about the “expression of L1” value (m130 cells; cisplatin 3 weeks (10, 15, 20 μM), FACS and Western Blot) of the same molecule?
The value was “strongly enhanced”.

What about the cell proliferation (m130 cells; long-term cisplatin treatment, data not shown) of the same molecule?
The cell proliferation was “clearly decreased cell proliferation”.

And the IC50 (OVMz)?
The IC50 was greater than 14 µM.

And the IC50 (m130)?
The IC50 was 7 µM.

For “L1-specific siRNA: L1 siRNA 5′-AGGGAUGG-UGUCCACCUUCAAAUU-3′ (SEQ ID NO: 1), synthesized by MWG-Biotech”, which “L1 expression at the cell surface” value (L1) is on record?
The value was “downregulation of L1 expression at the cell surface”.

And the “phosphorylation of ERK and FAK” value [3]?
The value was “no significant reduction”.

What about the “sensitivity to apoptosis induced by cisplatin or staurosporine” value (OVMz cells) of the same molecule?
Its value is “significantly enhanced”.

For `COc1cccc(-c2cc(=O)c3ccccc3o2)c1N` [PD59098], which cell migration (HEK293-hL1wt cells) is on record?
The cell migration was “Inhibition of cell migration was also observed”.

B1: soluble L1: soluble L1 ectodomain isolated from ascites fluid of ovarian carcinoma patients (protein, UniProt P32004 20-1120, looked up)
extracellular domain: IQIPEEYEGHHVMEPPVITEQSPRRLVVFPTDDISLKCEASGKPEVQFRWTRDGVHFKPKEELGVTVYQSPHSGSFTITGNNSNFAQRFQGIYRCFASNKLGTAMSHEIRLMAEGAPKWPKETVKPVEVEEGESVVLPCNPPPSAEPLRIYWMNSKILHIKQDERVTMGQNGNLYFANVLTSDNHSDYICHAHFPGTRTIIQKEPIDLRVKATNSMIDRKPRLLFPTNSSSHLVALQGQPLVLECIAEGFPTPTIKWLRPSGPMPADRVTYQNHNKTLQLLKVGEEDDGEYRCLAENSLGSARHAYYVTVEAAPYWLHKPQSHLYGPGETARLDCQVQGRPQPEVTWRINGIPVEELAKDQKYRIQRGALILSNVQPSDTMVTQCEARNRHGLLLANAYIYVVQLPAKILTADNQTYMAVQGSTAYLLCKAFGAPVPSVQWLDEDGTTVLQDERFFPYANGTLGIRDLQANDTGRYFCLAANDQNNVTIMANLKVKDATQITQGPRSTIEKKGSRVTFTCQASFDPSLQPSITWRGDGRDLQELGDSDKYFIEDGRLVIHSLDYSDQGNYSCVASTELDVVESRAQLLVVGSPGPVPRLVLSDLHLLTQSQVRVSWSPAEDHNAPIEKYDIEFEDKEMAPEKWYSLGKVPGNQTSTTLKLSPYVHYTFRVTAINKYGPGEPSPVSETVVTPEAAPEKNPVDVKGEGNETTNMVITWKPLRWMDWNAPQVQYRVQWRPQGTRGPWQEQIVSDPFLVVSNTSTFVPYEIKVQAVNSQGKGPEPQVTIGYSGEDYPQAIPELEGIEILNSSAVLVKWRPVDLAQVKGHLRGYNVTYWREGSQRKHSKRHIHKDHVVVPANTTSVILSGLRPYSSYHLEVQAFNGRGSGPASEFTFSTPEGVPGHPEALHLECQSNTSLLLRWQPPLSHNGVLTGYVLSYHPLDEGGKGQLSFNLRDPELRTHNLTDLSPHLRYRFQLQATTKEGPGEAIVREGGTMALSGISDFGNISATAGENYSVVSWVPKEGQCNFRFHILFKALGEEKGGASLSPQYVSYNQSSYTQWDLQPDTDYEIHLFKERMFRHQMAVKTNGTGRVRLPPAGFATE
modifications: extracellular domain
notes: soluble L1 ectodomain isolated from ascites fluid of ovarian carcinoma patients
With B1 as the molecule, how does the cell survival (HEK293 cells [4]) read?
Its cell survival is “enhanced survival of both cell lines to a similar degree; also recorded: only partially rescue HEK293 cells from apoptosis”.

And the cell survival (HEK293-hL1 cells [5])?
The cell survival was “enhanced survival of both cell lines to a similar degree”.

What about the FAK phosphorylation (FAK phosphorylation) of the same molecule?
The FAK phosphorylation was “enhanced FAK phosphorylation”.
